{"source": "patent US12479847B2", "about": "(DANA-FARBER CANCER INSTITUTE, INC., priority 2019, dated 2025)", "assay_in_all_cases": "KINOMEscan (ScanMAX) kinase profiling", "type_in_all_cases": "binding", "key": {"panel of 468 kinases [1]": {"target": "T1, panel of 468 kinases (Homo sapiens, UniProt Q8TD19)", "T1 construct": "purchased KINOMEscan (ScanMAX) service", "T1 sequence (Q8TD19 1-979)": "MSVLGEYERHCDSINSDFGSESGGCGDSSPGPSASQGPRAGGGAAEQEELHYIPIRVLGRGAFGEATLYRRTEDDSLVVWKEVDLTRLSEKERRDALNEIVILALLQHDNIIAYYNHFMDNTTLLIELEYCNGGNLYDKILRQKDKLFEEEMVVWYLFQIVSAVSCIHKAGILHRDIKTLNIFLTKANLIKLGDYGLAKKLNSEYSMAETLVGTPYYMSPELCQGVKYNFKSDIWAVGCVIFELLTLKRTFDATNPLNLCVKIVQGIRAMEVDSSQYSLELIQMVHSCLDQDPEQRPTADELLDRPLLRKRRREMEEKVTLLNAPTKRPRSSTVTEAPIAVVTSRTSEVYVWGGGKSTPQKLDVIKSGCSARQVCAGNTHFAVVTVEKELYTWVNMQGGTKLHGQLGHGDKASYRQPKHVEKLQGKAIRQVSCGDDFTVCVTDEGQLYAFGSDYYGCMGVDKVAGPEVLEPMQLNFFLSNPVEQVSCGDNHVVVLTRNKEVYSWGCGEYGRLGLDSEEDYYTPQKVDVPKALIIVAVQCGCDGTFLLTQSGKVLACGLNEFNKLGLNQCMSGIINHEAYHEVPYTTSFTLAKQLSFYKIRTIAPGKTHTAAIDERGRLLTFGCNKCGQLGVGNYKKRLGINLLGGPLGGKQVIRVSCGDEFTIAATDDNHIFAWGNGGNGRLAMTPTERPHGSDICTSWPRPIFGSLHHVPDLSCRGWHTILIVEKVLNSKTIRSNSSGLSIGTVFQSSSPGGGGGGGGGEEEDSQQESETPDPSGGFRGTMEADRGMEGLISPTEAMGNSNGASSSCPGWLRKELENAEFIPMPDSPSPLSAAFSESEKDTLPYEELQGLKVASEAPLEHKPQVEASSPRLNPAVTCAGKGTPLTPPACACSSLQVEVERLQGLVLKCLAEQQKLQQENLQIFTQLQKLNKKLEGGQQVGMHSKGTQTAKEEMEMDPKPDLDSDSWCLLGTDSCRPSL", "settings": "NEK9; 1 μM; read-out: % control"}, "panel of 468 kinases [2]": {"target": "T2, panel of 468 kinases (Homo sapiens, UniProt Q13873)", "T2 construct": "purchased KINOMEscan (ScanMAX) service", "T2 sequence (Q13873 27-1038)": "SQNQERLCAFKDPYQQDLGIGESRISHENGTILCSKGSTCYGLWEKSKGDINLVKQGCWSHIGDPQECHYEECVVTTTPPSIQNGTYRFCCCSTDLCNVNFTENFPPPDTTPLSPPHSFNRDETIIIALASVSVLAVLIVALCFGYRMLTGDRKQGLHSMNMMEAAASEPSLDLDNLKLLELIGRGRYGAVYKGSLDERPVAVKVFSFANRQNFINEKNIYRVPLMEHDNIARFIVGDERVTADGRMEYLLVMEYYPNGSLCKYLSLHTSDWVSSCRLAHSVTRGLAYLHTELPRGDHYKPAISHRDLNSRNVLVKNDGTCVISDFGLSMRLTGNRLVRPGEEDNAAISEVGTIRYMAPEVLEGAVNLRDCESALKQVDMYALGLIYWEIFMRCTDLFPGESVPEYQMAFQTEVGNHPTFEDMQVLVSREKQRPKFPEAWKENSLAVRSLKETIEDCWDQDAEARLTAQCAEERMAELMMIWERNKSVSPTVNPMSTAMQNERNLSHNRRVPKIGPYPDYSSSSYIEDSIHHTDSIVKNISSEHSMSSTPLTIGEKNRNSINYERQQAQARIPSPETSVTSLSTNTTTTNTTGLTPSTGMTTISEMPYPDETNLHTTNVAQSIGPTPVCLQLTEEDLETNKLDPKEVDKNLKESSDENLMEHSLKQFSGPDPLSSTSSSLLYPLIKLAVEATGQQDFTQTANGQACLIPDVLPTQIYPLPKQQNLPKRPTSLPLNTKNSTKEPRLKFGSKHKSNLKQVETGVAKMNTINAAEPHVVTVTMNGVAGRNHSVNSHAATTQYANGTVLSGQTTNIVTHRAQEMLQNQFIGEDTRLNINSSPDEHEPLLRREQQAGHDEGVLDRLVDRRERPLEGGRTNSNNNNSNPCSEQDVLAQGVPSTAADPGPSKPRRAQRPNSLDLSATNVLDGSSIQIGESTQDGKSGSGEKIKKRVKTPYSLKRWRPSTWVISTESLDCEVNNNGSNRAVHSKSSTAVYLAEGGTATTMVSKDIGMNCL", "settings": "BMPR2; 1 μM; read-out: % control"}, "panel of 468 kinases [3]": {"target": "T3, panel of 468 kinases (Plasmodium falciparum, UniProt P62344)", "T3 construct": "purchased KINOMEscan (ScanMAX) service", "T3 sequence (P62344 whole entry)": "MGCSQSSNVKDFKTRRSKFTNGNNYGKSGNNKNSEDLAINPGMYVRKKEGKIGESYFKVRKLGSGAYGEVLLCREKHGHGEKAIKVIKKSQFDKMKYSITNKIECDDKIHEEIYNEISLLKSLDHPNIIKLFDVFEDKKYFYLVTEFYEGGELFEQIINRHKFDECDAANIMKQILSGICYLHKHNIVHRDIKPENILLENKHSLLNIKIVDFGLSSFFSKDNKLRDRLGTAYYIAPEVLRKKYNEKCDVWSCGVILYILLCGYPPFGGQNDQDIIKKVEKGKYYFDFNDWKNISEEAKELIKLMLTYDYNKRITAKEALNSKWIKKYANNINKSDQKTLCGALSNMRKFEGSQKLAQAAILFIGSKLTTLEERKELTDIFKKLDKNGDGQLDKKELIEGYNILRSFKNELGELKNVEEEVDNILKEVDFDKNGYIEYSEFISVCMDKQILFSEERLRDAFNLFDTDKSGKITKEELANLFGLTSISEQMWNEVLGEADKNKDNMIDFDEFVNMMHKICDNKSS", "settings": "PFCDPK1(P.falciparum); 1 μM; read-out: % control"}, "panel of 468 kinases [4]": {"target": "T4, panel of 468 kinases (Homo sapiens, UniProt P42679)", "T4 construct": "purchased KINOMEscan (ScanMAX) service", "T4 sequence (P42679 1-507)": "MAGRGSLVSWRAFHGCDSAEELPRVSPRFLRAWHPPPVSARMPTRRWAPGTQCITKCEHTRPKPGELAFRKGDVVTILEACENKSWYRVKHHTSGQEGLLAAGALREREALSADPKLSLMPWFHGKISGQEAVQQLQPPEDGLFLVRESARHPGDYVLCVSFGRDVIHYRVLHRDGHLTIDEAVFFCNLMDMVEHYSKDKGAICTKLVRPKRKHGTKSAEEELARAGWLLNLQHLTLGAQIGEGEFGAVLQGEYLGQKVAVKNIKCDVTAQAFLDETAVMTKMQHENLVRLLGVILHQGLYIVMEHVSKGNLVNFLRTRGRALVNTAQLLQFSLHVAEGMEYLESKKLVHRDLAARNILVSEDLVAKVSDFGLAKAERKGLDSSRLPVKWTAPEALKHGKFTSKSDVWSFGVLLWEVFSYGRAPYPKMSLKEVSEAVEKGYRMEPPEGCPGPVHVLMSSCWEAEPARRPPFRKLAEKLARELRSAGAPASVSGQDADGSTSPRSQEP", "settings": "CTK; 1 μM; read-out: % control"}, "panel of 468 kinases [5]": {"target": "T5, panel of 468 kinases (Homo sapiens, UniProt Q9H4B4)", "T5 construct": "purchased KINOMEscan (ScanMAX) service", "T5 sequence (Q9H4B4 whole entry)": "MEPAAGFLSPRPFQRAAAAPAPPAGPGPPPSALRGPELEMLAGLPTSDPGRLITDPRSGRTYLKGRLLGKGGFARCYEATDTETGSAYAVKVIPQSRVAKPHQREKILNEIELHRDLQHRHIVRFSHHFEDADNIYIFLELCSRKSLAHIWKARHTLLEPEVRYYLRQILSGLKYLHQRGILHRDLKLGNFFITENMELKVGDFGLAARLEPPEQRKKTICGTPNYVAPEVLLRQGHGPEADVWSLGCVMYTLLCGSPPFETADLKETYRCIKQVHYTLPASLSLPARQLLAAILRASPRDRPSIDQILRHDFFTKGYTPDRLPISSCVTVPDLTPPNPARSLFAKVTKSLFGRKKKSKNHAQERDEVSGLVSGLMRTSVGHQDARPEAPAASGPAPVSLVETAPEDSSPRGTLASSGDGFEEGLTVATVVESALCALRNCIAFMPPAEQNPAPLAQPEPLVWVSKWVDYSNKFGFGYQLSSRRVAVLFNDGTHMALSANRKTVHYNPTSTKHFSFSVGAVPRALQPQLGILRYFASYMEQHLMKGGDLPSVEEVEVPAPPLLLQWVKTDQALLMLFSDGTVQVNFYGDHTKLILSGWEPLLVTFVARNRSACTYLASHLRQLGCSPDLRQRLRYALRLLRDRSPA", "settings": "PLK3; 1 μM; read-out: % control"}}, "data": [{"molecule": "CNc1nc(Nc2ccc(S(=O)(=O)N3CCC(N4CCOCC4)CC3)cc2OC)nc2[nH]cc(Cl)c12", "note": "[Compound 12, 5-chloro-N2-(2-methoxy-4-((4-morpholinopiperidin-1-yl)sulfonyl)phenyl)-N4-methyl-7H-pyrrolo[2,3-d]pyrimidine-2,4-diamine]", "values": [{"measurement": "remaining binding at 1 µM", "setting": "panel of 468 kinases [1]", "result": 100, "unit": "%"}, {"measurement": "remaining binding at 1 µM", "setting": "panel of 468 kinases [2]", "result": 97, "unit": "%"}, {"measurement": "remaining binding at 1 µM", "setting": "panel of 468 kinases [3]", "result": 97, "unit": "%"}, {"measurement": "remaining binding at 1 µM", "setting": "panel of 468 kinases [4]", "result": 100, "unit": "%"}, {"measurement": "remaining binding at 1 µM", "setting": "panel of 468 kinases [5]", "result": 100, "unit": "%"}]}, {"molecule": "CNc1nc(Nc2ccc(C(=O)N3CCC(N4CCOCC4)CC3)c3c2OCO3)nc2[nH]cc(Cl)c12", "note": "[Compound 75, (7-((5-chloro-4-(methylamino)-7H-pyrrolo[2,3-d]pyrimidin-2-yl)amino)benzo[d][1,3]dioxol-4-yl)(4-morpholinopiperidin-1-yl)methanone]", "values": [{"measurement": "remaining binding at 1 µM", "setting": "panel of 468 kinases [1]", "result": 100, "unit": "%"}, {"measurement": "remaining binding at 1 µM", "setting": "panel of 468 kinases [2]", "result": 92, "unit": "%"}, {"measurement": "remaining binding at 1 µM", "setting": "panel of 468 kinases [3]", "result": 99, "unit": "%"}, {"measurement": "remaining binding at 1 µM", "setting": "panel of 468 kinases [4]", "result": 100, "unit": "%"}, {"measurement": "remaining binding at 1 µM", "setting": "panel of 468 kinases [5]", "result": 100, "unit": "%"}]}, {"molecule": "CNc1nc(Nc2ccc(P3(=O)CCN(C4CCOCC4)CC3)cc2OC)nc2[nH]cc(Cl)c12", "note": "[Compound 77, 4-(4-((5-chloro-4-(methylamino)-7H-pyrrolo[2,3-d]pyrimidin-2-yl)amino)-3-methoxyphenyl)-1-(tetrahydro-2H-pyran-4-yl)-1,4-azaphosphinane 4-oxide]", "values": [{"measurement": "remaining binding at 1 µM", "setting": "panel of 468 kinases [1]", "result": 100, "unit": "%"}, {"measurement": "remaining binding at 1 µM", "setting": "panel of 468 kinases [2]", "result": 85, "unit": "%"}, {"measurement": "remaining binding at 1 µM", "setting": "panel of 468 kinases [3]", "result": 90, "unit": "%"}, {"measurement": "remaining binding at 1 µM", "setting": "panel of 468 kinases [4]", "result": 99, "unit": "%"}, {"measurement": "remaining binding at 1 µM", "setting": "panel of 468 kinases [5]", "result": 96, "unit": "%"}]}]}
